Test results taken from patent publication US20170232083A1, “METHODS OF DIAGNOSIS AND TREATMENT OF CELIAC DISEASE IN CHILDREN” (priority 2014, published 2017).

Tested on: PBMC (polyclonal gluten-specific T cells) of paediatric and adult CD patients
Assay: IFN-γ ELISpot of PBMC after 3 day oral wheat challenge (SFU, % of maximal peptide response, dominance scores, EC50; Examples 5-6)
Format: cell-based, human
Conditions: for IFN-γ ELISpot response: after oral wheat challenge
[1] = patient A, 11-17 yrs, cut-off 10 SFU
[2] = patient E, H, 11-17 yrs, cut-off 10 SFU
[3] = patient F, 11-17 yrs, cut-off 10 SFU
[4] = patient G, 11-17 yrs, cut-off 10 SFU
[5] = patient H (HLA-DQ2.5 homozygote), 3-5yrs, cut-off 10 SFU
[6] = patient H, 11-17 yrs, cut-off 10 SFU
[7] = patient ID not given, 11-17 yrs, cut-off 10 SFU
[8] = patient N, 3-5yrs, cut-off 10 SFU
[9] = patient P, 11-17 yrs, cut-off 21.6 SFU
[10] = patient Q, 11-17 yrs, cut-off 10 SFU
[11] = patient U, H, 11-17 yrs, cut-off 10 SFU
[12] = patient V, 6-10 yrs, cut-off 10 SFU
[13] = patient Y, 6-10 yrs, cut-off 10 SFU
[14] = patient eleven, 6-10 yrs, cut-off 10 SFU
[15] = patient four, 3-5yrs, cut-off 10 SFU
[16] = patient seven, 6-10 yrs, cut-off 10.5 SFU
[17] = patient ten, 3-5yrs, cut-off 10 SFU
[18] = patient three, 6-10 yrs, cut-off 10.5 SFU
[19] = patient twelve, 11-17 yrs, cut-off 10 SFU
[20] = patient two, 3-5yrs, cut-off 10 SFU

Substance	IFN-γ ELISpot response [1] [SFU]	IFN-γ ELISpot response [2] [SFU]	IFN-γ ELISpot response [3] [SFU]	Significant response as percentage of maximal peptide SFU (patient F, max peptide 178 SFU)	IFN-γ ELISpot response [4] [SFU]	IFN-γ ELISpot response [5] [SFU]	IFN-γ ELISpot response [6] [SFU]	IFN-γ ELISpot response [7] [SFU]	Significant response as percentage of maximal peptide SFU (patient II, max peptide 15 SFU)	IFN-γ ELISpot response [8] [SFU]	IFN-γ ELISpot response [9] [SFU]	IFN-γ ELISpot response [10] [SFU]	IFN-γ ELISpot response [11] [SFU]	IFN-γ ELISpot response [12] [SFU]	IFN-γ ELISpot response [13] [SFU]	IFN-γ ELISpot response [14] [SFU]	IFN-γ ELISpot response [15] [SFU]	IFN-γ ELISpot response [16] [SFU]	IFN-γ ELISpot response [17] [SFU]	IFN-γ ELISpot response [18] [SFU]	further results
LQPFPQPELPYSQP	3	104	81	′′′ (41-70% = ′′′)	5	36	15	53	+ (>70% = +)	3	37	29	25	19	12	39	22	6	11	71	Significant response as percentage of maximal peptide SFU (patient E, max peptide 224 SFU): ′′′ (41-70% = ′′′); Significant response as percentage of maximal peptide SFU (patient H, max peptide 17 SFU): + (>70% = +); Significant response as percentage of maximal peptide SFU (patient ID not given, max peptide 95 SFU): ′′′ (41-70% = ′′′); Significant response as percentage of maximal peptide SFU (patient J, max peptide 196 SFU): ′′ (21-40% = ′′); Significant response as percentage of maximal peptide SFU (patient M, max peptide 48 SFU): + (>70% = +); Significant response as percentage of maximal peptide SFU (patient P, max peptide 64 SFU): ′′′ (41-70% = ′′′); Significant response as percentage of maximal peptide SFU (patient Q, max peptide 97 SFU): ′′ (21-40% = ′′); Significant response as percentage of maximal peptide SFU (patient U, max peptide 81 SFU): ′′ (21-40% = ′′); Significant response as percentage of maximal peptide SFU (patient V, max peptide 35 SFU): ′′′ (41-70% = ′′′); Significant response as percentage of maximal peptide SFU (patient Y, max peptide 16 SFU): + (>70% = +); Significant response as percentage of maximal peptide SFU (patient eleven, max peptide 57 SFU): ′′′ (41-70% = ′′′); Significant response as percentage of maximal peptide SFU (patient five, max peptide 48 SFU): ′′′ (41-70% = ′′′); Significant response as percentage of maximal peptide SFU (patient four, max peptide 44 SFU): ′′′ (41-70% = ′′′); Significant response as percentage of maximal peptide SFU (patient ten, max peptide 14.5 SFU): + (>70% = +); IFN-γ ELISpot response [19]: 6 SFU; IFN-γ ELISpot response [20]: 13 SFU; Significant response as percentage of maximal peptide SFU (patient two, max peptide 60 SFU): ′ (11-20% = ′)
W09 (PQPFLPELPYPQP) [Peptide W09]	–	–	–	–	–	–	–	–	–	–	–	–	–	–	–	–	–	–	–	–	Dominance score 3-5yrs (n = 9) (CD children 3-5yrs, n = 9, following wheat challenge, mean percentage of maximal peptide response): 30.7; Dominance score 6-10yrs (n = 10) (CD children 6-10yrs, n = 10, following wheat challenge, mean percentage of maximal peptide response): 28.6; Dominance score 11-18yrs (n = 11) (CD children 11-18yrs, n = 11, following wheat challenge, mean percentage of maximal peptide response): 19.1; Dominance score Mean all ages (CD children, all ages, following wheat challenge (Table 9)): 25.2
GQSGYYPTSPQQS	5	0	10	(6-10% = ^)	1	2	4	1	+ (>70% = +)	0	10	5	4	3	0	4	3	11	5	6	Significant response as percentage of maximal peptide SFU (patient seven, max peptide 27 SFU): ′′′ (41-70% = ′′′); IFN-γ ELISpot response [19]: 2 SFU; IFN-γ ELISpot response [20]: 2 SFU
